From the supplement of paper PMC10307832

Legend:
Assay in all cases: relative viability (nuclei count vs DMSO), 5 days (fraction); higher = more cells survive
AGI-6780 + Trametinib = compound: O=C(Nc1cccc(C(F)(F)F)c1)Nc1cc(S(=O)(=O)NC2CC2)ccc1-c1ccsc1 [AGI-6780] + CC(=O)Nc1cccc(-n2c(=O)n(C3CC3)c(=O)c3c(Nc4ccc(I)cc4F)n(C)c(=O)c(C)c32)c1 [Trametinib] (partner 0.02 µM)
Outline: (§1)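 Lung cancer cell lines, seeded in 1536-well plates, were treated the following day by pin tool with a single drug or with five library-drug doses (not always all listed) in √10 steps on top of a fixed anchor-drug dose. Cells were fixed and nuclei stained in one step after 5 days, and nuclei were counted. Relative viability is the nuclei count for treated wells divided by that for vehicle wells, reported as medians of duplicate plates.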

AGI-6780 + OSI-027 = compound: O=C(Nc1cccc(C(F)(F)F)c1)Nc1cc(S(=O)(=O)NC2CC2)ccc1-c1ccsc1 [AGI-6780] + COc1cccc2cc(-c3nc([C@H]4CC[C@H](C(=O)O)CC4)n4ncnc(N)c34)[nH]c12 [OSI-027] (partner 0.5 µM)
Outline: as §1

AGI-6780 + Lapatinib = compound: O=C(Nc1cccc(C(F)(F)F)c1)Nc1cc(S(=O)(=O)NC2CC2)ccc1-c1ccsc1 [AGI-6780] + CS(=O)(=O)CCNCc1ccc(-c2ccc3ncnc(Nc4ccc(OCc5cccc(F)c5)c(Cl)c4)c3c2)o1 [Lapatinib] (partner 2 µM)
Outline: as §1

AGI-6780 + Linsitinib = compound: O=C(Nc1cccc(C(F)(F)F)c1)Nc1cc(S(=O)(=O)NC2CC2)ccc1-c1ccsc1 [AGI-6780] + C[C@]1(O)C[C@@H](c2nc(-c3ccc4ccc(-c5ccccc5)nc4c3)c3c(N)nccn32)C1 [Linsitinib] (partner 1 µM)
Outline: as §1

Row | Cell Line | relative viability (AGI-6780 + Trametinib; first compound 0.08 µM) | relative viability (AGI-6780 + Trametinib; first compound 0.253 µM) | relative viability (AGI-6780 + Trametinib; first compound 0.8 µM) | relative viability (AGI-6780 + Trametinib; first compound 2.53 µM) | relative viability (AGI-6780 + Trametinib; first compound 8 µM) | relative viability (AGI-6780 + OSI-027; first compound 0.08 µM) | relative viability (AGI-6780 + OSI-027; first compound 0.253 µM) | relative viability (AGI-6780 + OSI-027; first compound 0.8 µM) | relative viability (AGI-6780 + OSI-027; first compound 2.53 µM) | relative viability (AGI-6780 + OSI-027; first compound 8 µM) | relative viability (AGI-6780 + Lapatinib; first compound 0.08 µM) | relative viability (AGI-6780 + Lapatinib; first compound 0.253 µM) | relative viability (AGI-6780 + Lapatinib; first compound 0.8 µM) | relative viability (AGI-6780 + Lapatinib; first compound 2.53 µM) | relative viability (AGI-6780 + Lapatinib; first compound 8 µM) | relative viability (AGI-6780 + Linsitinib; first compound 0.08 µM) | relative viability (AGI-6780 + Linsitinib; first compound 0.253 µM) | relative viability (AGI-6780 + Linsitinib; first compound 0.8 µM) | relative viability (AGI-6780 + Linsitinib; first compound 2.53 µM) | relative viability (AGI-6780 + Linsitinib; first compound 8 µM)
1 | 201T | 0.705 | 0.731 | 0.715 | 0.72 | 0.773 | 0.713 | 0.694 | 0.723 | 0.325 | 0.753 | 1.03 | 1.01 | 1.02 | 1.01 | 1.02 | 1.06 | 1.06 | 1.02 | 0.993 | 1.01
2 | A549 |  |  |  |  |  |  |  |  |  |  | 0.999 | 0.968 | 1.14 | 0.927 | 1.06 | 0.585 | 0.594 | 0.701 | 0.452 | 0.545
3 | A-427 |  | 0.7 | 0.797 | 0.559 | 0.725 | 0.477 | 0.458 | 0.507 | 0.384 | 0.509 | 1.09 | 0.997 | 1.01 | 0.945 | 0.929 | 1.09 | 1.07 | 1.1 | 1.03 | 1.12
4 | ABC-1 |  |  |  |  |  | 0.469 | 0.524 | 0.688 | 0.55 | 0.595 | 1.26 | 1.2 | 1.27 | 1.16 | 1.27 | 0.756 | 0.501 | 0.835 | 0.736 | 0.601
5 | BEN | 0.897 | 0.999 | 1.14 |  | 0.993 | 0.311 | 0.298 | 0.321 | 0.28 | 0.304 | 0.569 | 0.703 | 0.91 |  | 0.637 | 0.894 | 0.845 | 1.07 |  | 0.971
6 | CAL-12T | 0.307 | 0.425 | 0.306 | 0.309 | 0.321 | 0.748 | 0.76 | 0.693 | 0.428 | 0.519 |  | 0.582 | 0.876 | 0.572 | 0.619 | 0.771 | 0.726 | 0.72 | 1 | 0.892
7 | COR-L23 | 0.601 | 0.536 | 0.529 | 0.379 | 0.568 | 0.743 | 0.77 | 0.705 | 0.527 | 0.784 | 0.905 | 0.919 | 0.982 | 1.31 | 0.997 | 0.969 | 0.766 | 0.77 | 1.08 | 0.891
8 | COR-L 105 | 0.465 | 0.576 | 0.464 | 0.397 | 0.351 | 0.783 | 0.669 | 0.719 | 0.582 | 0.72 | 0.358 | 0.357 | 0.437 | 0.343 | 0.324 | 0.989 | 0.946 | 0.941 | 0.808 | 0.952
9 | Calu-6 |  |  |  |  |  |  |  |  |  |  | 0.989 | 1.01 | 1.22 | 1.14 | 0.974 | 0.984 | 1.02 | 0.897 | 0.852 | 0.955
10 | ChaGo-K-1 | 0.876 | 0.799 | 0.888 | 0.815 | 0.871 | 0.521 | 0.613 | 0.577 | 0.42 | 0.547 |  |  |  |  |  |  |  |  |  | 
11 | EBC-1 |  |  |  |  |  |  |  |  |  |  | 0.224 | 0.21 | 0.198 | 0.202 | 0.201 | 0.861 | 1.13 | 0.885 | 0.836 | 0.94
12 | EKVX | 0.32 | 0.383 | 0.392 | 0.386 | 0.312 | 0.663 | 0.665 | 0.721 | 0.649 | 0.716 | 0.234 | 0.19 | 0.217 | 0.192 | 0.216 | 1.09 | 1.03 | 0.966 | 1.05 | 1.04
13 | EMC-BAC-2 |  | 0.909 | 0.896 | 0.752 | 0.842 | 0.383 | 0.384 | 0.338 | 0.301 | 0.427 | 0.919 | 0.929 | 0.878 | 0.725 | 0.94 | 0.845 | 0.82 | 0.835 | 0.782 | 0.822
14 | EPLC-272H | 0.285 | 0.328 | 0.291 | 0.254 | 0.312 |  | 0.282 | 0.247 | 0.245 | 0.293 | 0.921 | 0.949 | 0.881 | 0.747 | 1.11 | 1.28 | 1.43 | 1.21 | 1.03 | 1.11
15 | H3255 | 0.595 | 0.592 | 0.668 |  | 0.609 | 0.667 | 0.55 | 0.551 | 0.523 | 0.584 | 0.222 | 0.275 | 0.248 | 0.204 | 0.263 | 1 | 0.947 | 0.96 | 0.968 | 0.969
16 | HARA | 1.02 | 0.638 | 0.685 | 0.707 | 0.628 | 0.573 | 0.594 | 0.339 | 0.197 | 0.514 | 0.872 | 0.825 | 0.613 | 0.681 | 0.707 | 0.921 | 0.949 | 0.841 | 0.971 | 0.985
17 | HCC-15 | 0.369 | 0.426 | 0.349 | 0.309 | 0.369 | 0.743 | 0.763 | 0.783 | 0.458 | 0.725 | 0.896 | 0.824 | 0.971 | 0.83 | 0.856 | 0.897 | 0.867 | 0.941 | 0.777 | 0.821
18 | HCC-44 | 1.08 | 0.993 | 1.1 | 0.994 | 1.07 | 0.628 | 0.719 | 0.477 | 0.47 | 0.594 | 0.989 | 1 | 1.03 | 0.96 | 1.04 | 0.714 | 0.73 | 0.693 | 0.622 | 0.597
